Laboratory results taken from US20220288048A1, “PIMAVANSERIN FOR TREATING SCHIZOPHRENIA OR FOR TREATING PSYCHOSIS SECONDARY TO NEURODEGENERATIVE DISORDERS OR DEPRESSIVE DISORDER” (ACADIA Pharmaceuticals Inc., priority 2019, published 2022).
Entries after “also recorded” stand apart in the source; their conditions may differ.

Columns and labels:
Type in all cases: in vivo
[1] = test system: scPCP+ARS(2h) treated male C57BL/6J mice; assay: 10-min social interaction test in scPCP-treated mice given 2 h acute restraint stress (treatment-resistant model); details: for Able to restore sniffing or decrease avoidance (SI deficit), drug alone: risperidone 0.2, olanzapine 1, aripiprazole 1 or pimavanserin 3 mg/kg ip alone, 45 min prior to test
Procedure: (§1) Briefly, mice were habituated to the test arena (i.e., the NOR box) for 30 minutes prior to the test day. Pairs of mice, unfamiliar to each other, received either the same treatment (e.g., vehicle and vehicle; N=10 pairs) or different treatments (e.g., vehicle; N=10 and phencyclidine (PCP) 10 mg/kg; N=10). After washout, they were placed in the test arena together for 10 minutes. A heavy object made of Plexiglas or metal was placed in the center of the test arena to quantify the time and nature of interaction of the test animals with an unfamiliar object or an unfamiliar animal. After the 10 min test phase, the object and the arena were cleaned with 70% ethanol to remove any olfactory trails. Behavior was recorded on video for subsequent blind scoring.
(§2) The following four behaviors were scored for each animal: • a) Sniffing: A normal mouse engages in sniffing the con-specific mouse's body, including the anogenital area • b) Following: A normal mouse pursues a con-specific mouse around the arena • c) Avoiding: A normal mouse avoids the con-specific mouse and move away from a pursuing mouse if approached • d) Object Exploration: A normal mouse explores the object that is placed in the center of the test arena.
Acute restraint stress (ARS) protocol: Mice were assigned to one of two groups: either the control group (non-stress) or the stress group. Generally, mice of the stress group were restrained in well-ventilated 50 mL tubes. After the restraint period of 1 or 2 hours, the mice were transferred into a clean animal housing cage for 1-hour interval and thereafter went through the first social interaction test (different mice are used to test different groups).
Treatment resistant animal model: To establish this model, Acute restraint stress (ARS) was added to scPCP treatment. Two groups (vehicle+ARS; scPCP+ARS) and their controls (vehicle+saline; scPCP+saline) were used. ARS was applied for 1 or 2 hours and tested on SI 1 hour post-ARS.
(§3) The behavioral assay, ARS protocol, and scPCP-treatment as described in Example 2 were used. To test the effect of atypical APD and pimavanserin, alone or as con-administration, in scPCP-treated mice (N=10 pairs of mice per group) given 2 h ARS, risperidone (“Risp”) was administered as 0.2 mg/kg or 0.4 mg/kg ip; olanzapine (“Olan”) as 1.0 mg/kg ip; aripiprazole (“Aripi”) as 1.0 mg/kg ip; and pimavanserin (“Pim”) as 3 mg/kg ip to scPCP+ARS(2h) treated male C57BL/6J mice 45 minutes prior to the commencement of the social interaction task in the 10 min social interaction test. Plasma levels of risperidone were measured using a Triple Quad 6500+ mass spectrometer.

[2] = Plasma levels of risperidone in scPCP and ARS-treated mice (mass spectrometer)
Procedure: as §3

[3] = test system: scPCP-treated C57BL/6J mice; assay: 10-min social interaction test in scPCP-treated mice; details: 45 min prior to test
Procedure: Negative symptoms model: The behavioral assay utilized to assess negative symptoms was social interaction (SI) task.
as §1, §2
scPCP treatment involved intraperitoneal injection (ip) of 10 mg/kg PCP to male C57BL/6J mice, twice daily (bid) for 7 days, followed by 7 days washout. To test the effect of atypical APD or pimavanserin in scPCP-treated mice (N=10 pairs of mice per group), risperidone was administered as 0.05 mg/kg ip or 0.2 mg/kg ip; and pimavanserin was administered as 3 mg/kg ip or 6 mg/kg ip to scPCP-treated mice 45 minutes prior to the commencement of the social interaction task in the 10 min social interaction test.

Row | SMILES | Able to restore sniffing or decrease avoidance (SI deficit), drug alone [1] | Plasma levels of risperidone ([2]; 0.2 mg/kg risperidone group) | Plasma levels of risperidone ([2]; 0.2 mg/kg risperidone plus 3 mg/kg pimavanserin group) | Plasma levels of risperidone ([2]; 0.4 mg/kg risperidone group) | Effect on SI deficit, doubled dose ([1]; risperidone 0.4 mg/kg ip) | SI deficit produced by scPCP: time exploring the conspecific mouse ([3]; risperidone 0.05 mg/kg ip) | SI deficit produced by scPCP: time exploring the conspecific mouse ([3]; risperidone 0.2 mg/kg ip)
1 | O=C1CCc2ccc(OCCCCN3CCN(c4cccc(Cl)c4Cl)CC3)cc2N1 [aripiprazole] | Neither | – | – | – | – | – | –
2 | Cc1nc2n(c(=O)c1CCN1CCC(c3noc4cc(F)ccc34)CC1)CCCC2 [risperidone] | Neither; also recorded: ineffective | 5.4±0.1 | 5.3±0.6 | 8.0±3.3 | ineffective | sub-effective | spent more time exploring the conspecific mouse
